Measurements: patent US20250171437A1 (Agios Pharmaceuticals,Inc., priority 2022, published 2025)

Biological target: T1, human PAH with the R408W mutation (A375 R408W cells) (Homo sapiens, UniProt P00439, R408W)
T1 construct: expressed in transfected cells
T1 sequence (P00439 1-452 R408W): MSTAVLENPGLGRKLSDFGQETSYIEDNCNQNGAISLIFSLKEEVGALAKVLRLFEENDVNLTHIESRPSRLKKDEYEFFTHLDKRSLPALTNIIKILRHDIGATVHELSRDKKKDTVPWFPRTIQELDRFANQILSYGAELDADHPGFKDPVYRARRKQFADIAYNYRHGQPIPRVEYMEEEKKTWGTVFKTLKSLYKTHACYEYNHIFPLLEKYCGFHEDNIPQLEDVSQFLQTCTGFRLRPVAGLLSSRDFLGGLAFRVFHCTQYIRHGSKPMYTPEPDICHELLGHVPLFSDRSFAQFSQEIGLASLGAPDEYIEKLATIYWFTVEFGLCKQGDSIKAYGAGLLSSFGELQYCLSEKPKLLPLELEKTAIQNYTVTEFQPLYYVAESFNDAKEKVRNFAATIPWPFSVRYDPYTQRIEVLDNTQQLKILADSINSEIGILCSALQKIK
Test: Cell Based Phenylalanine Flux Assay
Conditions: A375 R408W cells; 24 hrs with compound, then 20 μM sepiapterin and 800 μM 13C9,15N-Phenylalanine for 4 hours; 13C-Tyrosine by LC-MS; average where tested multiple times
In short: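 A375 cells stably expressing human PAH R408W treated 24 h at 37° C with a 10-point 2-fold dose curve in duplicate, 0.5% DMSO. Then 20 μM sepiapterin and 800 μM 13C9,15N-Phe added for 4 h; 13C-Tyr in media measured by LC-MS to give AC50.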

SMILES | AC50 [nM]
O=C(c1nnc(-c2ccc(OC(F)(F)F)cn2)o1)N1CCc2[nH]cnc2[C@H]1c1nc2cc(F)ccc2o1 [Example 671, (S)-(4-(5-fluorobenzo[d]oxazol-2-yl)-6,7-dihydro-1H-imidazo[4,5-c]pyridin-5(4H)-yl)(5-(5-(trifluoromethoxy)pyridin-2-yl)-1,3,4-oxadiazol-2-yl)methanone] | 1000 to 5000
O=C(c1nnc(-c2ccc(OC(F)(F)F)cn2)o1)N1CCc2[nH]cnc2[C@@H]1c1nc2cc(F)ccc2o1 [Example 672, (R)-(4-(5-fluorobenzo[d]oxazol-2-yl)-6,7-dihydro-1H-imidazo[4,5-c]pyridin-5(4H)-yl)(5-(5-(trifluoromethoxy)pyridin-2-yl)-1,3,4-oxadiazol-2-yl)methanone] | 1000 to 5000
Cc1ccc2oc([C@@H]3c4nc[nH]c4CCN3C(=O)c3nnc(-c4cnn(C(F)F)c4)o3)nc2c1 [Example 673, (S)-(5-(1-(difluoromethyl)-1H-pyrazol-4-yl)-1,3,4-oxadiazol-2-yl)(4-(5-methylbenzo[d]oxazol-2-yl)-6,7-dihydro-1H-imidazo[4,5-c]pyridin-5(4H)-yl)methanone] | ≤ 500
Cc1ccc2oc([C@H]3c4nc[nH]c4CCN3C(=O)c3nnc(-c4cnn(C(F)F)c4)o3)nc2c1 [Example 674, (R)-(5-(1-(difluoromethyl)-1H-pyrazol-4-yl)-1,3,4-oxadiazol-2-yl)(4-(5-methylbenzo[d]oxazol-2-yl)-6,7-dihydro-1H-imidazo[4,5-c]pyridin-5(4H)-yl)methanone] | 1000 to 5000
COc1ccc(-c2nnc(C(=O)N3CCc4[nH]cnc4[C@H]3c3nc4cc(C)ccc4o3)o2)nc1 [Example 677, (S)-(5-(5-methoxypyridin-2-yl)-1,3,4-oxadiazol-2-yl)(4-(5-methylbenzo[d]oxazol-2-yl)-6,7-dihydro-1H-imidazo[4,5-c]pyridin-5(4H)-yl)methanone] | ≤ 500
COc1ccc(-c2nnc(C(=O)N3CCc4[nH]cnc4[C@@H]3c3nc4cc(C)ccc4o3)o2)nc1 [Example 678, (R)-(5-(5-methoxypyridin-2-yl)-1,3,4-oxadiazol-2-yl)(4-(5-methylbenzo[d]oxazol-2-yl)-6,7-dihydro-1H-imidazo[4,5-c]pyridin-5(4H)-yl)methanone] | 1000 to 5000
Cc1ccc2nc([C@@H]3c4nc[nH]c4CCN3C(=O)c3nnc(-c4ncccc4F)o3)oc2c1 [Example 679, (S)-(5-(3-fluoropyridin-2-yl)-1,3,4-oxadiazol-2-yl)(4-(6-methylbenzo[d]oxazol-2-yl)-6,7-dihydro-1H-imidazo[4,5-c]pyridin-5(4H)-yl)methanone] | 500 to 1000
Cc1ccc2nc([C@H]3c4nc[nH]c4CCN3C(=O)c3nnc(-c4ncccc4F)o3)oc2c1 [Example 680, (R)-(5-(3-fluoropyridin-2-yl)-1,3,4-oxadiazol-2-yl)(4-(6-methylbenzo[d]oxazol-2-yl)-6,7-dihydro-1H-imidazo[4,5-c]pyridin-5(4H)-yl)methanone] | 1000 to 5000
Cc1ccc2nc([C@@H]3c4nc[nH]c4CCN3C(=O)c3nnc(-c4cnn(C(F)F)c4)o3)oc2c1 [Example 681, (S)-(5-(1-(difluoromethyl)-1H-pyrazol-4-yl)-1,3,4-oxadiazol-2-yl)(4-(6-methylbenzo[d]oxazol-2-yl)-6,7-dihydro-1H-imidazo[4,5-c]pyridin-5(4H)-yl)methanone] | 500 to 1000
Cc1ccc2nc([C@H]3c4nc[nH]c4CCN3C(=O)c3nnc(-c4cnn(C(F)F)c4)o3)oc2c1 [Example 682, (R)-(5-(1-(difluoromethyl)-1H-pyrazol-4-yl)-1,3,4-oxadiazol-2-yl)(4-(6-methylbenzo[d]oxazol-2-yl)-6,7-dihydro-1H-imidazo[4,5-c]pyridin-5(4H)-yl)methanone] | ≥ 5000
Cn1nc(C(F)(F)F)nc1C(=O)N1CCc2[nH]cnc2[C@H]1c1nc2ccccc2o1 [Example 683, (S)-(4-(benzo[d]oxazol-2-yl)-6,7-dihydro-1H-imidazo[4,5-c]pyridin-5(4H)-yl)(1-methyl-3-(trifluoromethyl)-1H-1,2,4-triazol-5-yl)methanone] | 1000 to 5000
Cn1cncc1-c1nc(C(F)F)c(C(=O)N2CCc3[nH]cnc3[C@H]2c2nc3cc(F)ccc3o2)o1 [Example 687, (S)-(4-(difluoromethyl)-2-(1-methyl-1H-imidazol-5-yl)oxazol-5-yl)(4-(5-fluorobenzo[d]oxazol-2-yl)-6,7-dihydro-1H-imidazo[4,5-c]pyridin-5(4H)-yl)methanone] | 500 to 1000
Cn1cncc1-c1nc(C(F)F)c(C(=O)N2CCc3[nH]cnc3[C@@H]2c2nc3cc(F)ccc3o2)o1 [Example 688, (R)-(4-(difluoromethyl)-2-(1-methyl-1H-imidazol-5-yl)oxazol-5-yl)(4-(5-fluorobenzo[d]oxazol-2-yl)-6,7-dihydro-1H-imidazo[4,5-c]pyridin-5(4H)-yl)methanone] | 1000 to 5000
O=C(c1oc(C2(O)CCC2)nc1C(F)F)N1CCc2[nH]cnc2[C@H]1c1nc2cc(F)ccc2o1 [Example 689, (S)-(4-(difluoromethyl)-2-(1-hydroxycyclobutyl)oxazol-5-yl)(4-(5-fluorobenzo[d]oxazol-2-yl)-6,7-dihydro-1H-imidazo[4,5-c]pyridin-5(4H)-yl)methanone] | ≤ 500

Now from value to compound:

AC50 [nM] | SMILES
≤ 500 | Cn1cc(-c2nnc(C(=O)N3CCc4[nH]cnc4[C@H]3c3nc4cc(F)cc(F)c4o3)o2)cn1 [Example 665, (S)-(4-(5,7-difluorobenzo[d]oxazol-2-yl)-6,7-dihydro-1H-imidazo[4,5-c]pyridin-5(4H)-yl)(5-(1-methyl-1H-pyrazol-4-yl)-1,3,4-oxadiazol-2-yl)methanone]
≤ 500 | Cn1cc(-c2nnc(C(=O)N3CCc4[nH]cnc4[C@@H]3c3nc4cc(F)cc(F)c4o3)o2)cn1 [Example 666, (R)-(4-(5,7-difluorobenzo[d]oxazol-2-yl)-6,7-dihydro-1H-imidazo[4,5-c]pyridin-5(4H)-yl)(5-(1-methyl-1H-pyrazol-4-yl)-1,3,4-oxadiazol-2-yl)methanone]
≤ 500 | O=C(c1oc(-c2ncccn2)nc1C(F)F)N1CCc2[nH]cnc2[C@H]1c1nc2cccc(F)c2o1 [Example 667, (S)-(4-(difluoromethyl)-2-(pyrimidin-2-yl)oxazol-5-yl)(4-(7-fluorobenzo[d]oxazol-2-yl)-6,7-dihydro-1H-imidazo[4,5-c]pyridin-5(4H)-yl)methanone]
≤ 500 | O=C(c1oc(-c2ncccn2)nc1C(F)F)N1CCc2[nH]cnc2[C@@H]1c1nc2cccc(F)c2o1 [Example 668, (R)-(4-(difluoromethyl)-2-(pyrimidin-2-yl)oxazol-5-yl)(4-(7-fluorobenzo[d]oxazol-2-yl)-6,7-dihydro-1H-imidazo[4,5-c]pyridin-5(4H)-yl)methanone]
≤ 500 | Cn1cc(-c2nc(C(F)(F)F)c(C(=O)N3CCc4[nH]cnc4[C@H]3c3nc4cccc(F)c4o3)o2)cn1 [Example 669, (S)-(4-(7-fluorobenzo[d]oxazol-2-yl)-6,7-dihydro-1H-imidazo[4,5-c]pyridin-5(4H)-yl)(2-(1-methyl-1H-pyrazol-4-yl)-4-(trifluoromethyl)oxazol-5-yl)methanone]
≤ 500 | Cn1cc(-c2nc(C(F)(F)F)c(C(=O)N3CCc4[nH]cnc4[C@@H]3c3nc4cccc(F)c4o3)o2)cn1 [Example 670, (R)-(4-(7-fluorobenzo[d]oxazol-2-yl)-6,7-dihydro-1H-imidazo[4,5-c]pyridin-5(4H)-yl)(2-(1-methyl-1H-pyrazol-4-yl)-4-(trifluoromethyl)oxazol-5-yl)methanone]
≤ 500 | O=C(c1oc(N2CCC(F)CC2)nc1C(F)F)N1CCc2[nH]cnc2[C@@H]1c1nc2cccc(F)c2o1 [Example 675, (R)-(4-(difluoromethyl)-2-(4-fluoropiperidin-1-yl)oxazol-5-yl)(4-(7-fluorobenzo[d]oxazol-2-yl)-6,7-dihydro-1H-imidazo[4,5-c]pyridin-5(4H)-yl)methanone]
≤ 500 | O=C(c1oc(N2CCC(F)CC2)nc1C(F)F)N1CCc2[nH]cnc2[C@H]1c1nc2cccc(F)c2o1 [Example 676, (S)-(4-(difluoromethyl)-2-(4-fluoropiperidin-1-yl)oxazol-5-yl)(4-(7-fluorobenzo[d]oxazol-2-yl)-6,7-dihydro-1H-imidazo[4,5-c]pyridin-5(4H)-yl)methanone]
1000 to 5000 | Cn1nc(C(F)(F)F)nc1C(=O)N1CCc2[nH]cnc2[C@@H]1c1nc2ccccc2o1 [Example 684, (R)-(4-(benzo[d]oxazol-2-yl)-6,7-dihydro-1H-imidazo[4,5-c]pyridin-5(4H)-yl)(1-methyl-3-(trifluoromethyl)-1H-1,2,4-triazol-5-yl)methanone]
500 to 1000 | Cc1cccc2nc([C@@H]3c4nc[nH]c4CCN3C(=O)c3nc(C(F)(F)F)nn3C)oc12 [Example 685, (S)-(1-methyl-3-(trifluoromethyl)-1H-1,2,4-triazol-5-yl)(4-(7-methylbenzo[d]oxazol-2-yl)-6,7-dihydro-1H-imidazo[4,5-c]pyridin-5(4H)-yl)methanone]
1000 to 5000 | Cc1cccc2nc([C@H]3c4nc[nH]c4CCN3C(=O)c3nc(C(F)(F)F)nn3C)oc12 [Example 686, (R)-(1-methyl-3-(trifluoromethyl)-1H-1,2,4-triazol-5-yl)(4-(7-methylbenzo[d]oxazol-2-yl)-6,7-dihydro-1H-imidazo[4,5-c]pyridin-5(4H)-yl)methanone]
